Assay [1] has as its system human PSC-derived engineered NK cells. The assay can be described thus: effect of UM171 on NK differentiation (Step 2). Format: cell-based. The settings on record: 35 nM UM171 versus no UM171. The text has this: FIGS. 2A-2C are bar graphs illustrating the cell yield (FIG. 2A), percentage of CD56+CD45^+ cells (FIG. 2B), and cell viability (FIG. 2C) resulting from the method of producing human PSC-derived engineered NK cells (FcR-UDC I-NK cells) described herein.
Parental and engineered UDC PSCs (collectively, “PSCs”) were thawed, expanded, and cultured in mTeSR™ (STEMCELL Technologies, Cambridge, MA) feeder-free, animal component-free media for up to seven days on vitronectin. The PSCs were dissociated into single cells and transferred into microwell plates and cultured in STEMdiff™ APEL™2 and Gibco® PFHM-II media (STEMCELL Technologies, Cambridge, MA; ThermoFisher Scientific, Waltham, MA) for fourteen days to differentiate into precursor cells (via embryoid bodies) capable of differentiating to hematopoietic cell types, endothelial cell types, and/or mesodermal derivatives. The media was supplemented with BMP4 (20 ng/ml), VEGF (20 ng/ml), and SCF (40 ng/ml). Half media changes were performed every other day starting on day 3. The embryoid bodies were replated on DLL4/Retronectin-coated T75 flasks to differentiate into NK cells. The embryoid bodies were cultured under feeder free conditions in differentiation media comprising SCF (20 ng/ml), IL-7 (20 ng/ml), IL-15 (10 ng/ml), Flt3L (10 ng/mL), IL-3 ([…]) and 35 nM UM171 for 21 days in modified DMEM/F12. […]

Assay [2] deals with Raji (Burkitt's lymphoma) cells. Nature of the assay: Raji i.p. tumor model, study of FIG. 23 (Table 2). Type of assay: in vivo, NSG mice. The settings on record: single agent alone, compared to untreated. How it is done: FIG. 23 is a graphic of an efficacy study of FcR-UDC I-NK cells plus Rituximab in a Raji i.p. tumor model. NSG mice were irradiated and injected (i.p.) with Raji tumor cells (3×10^5). At day 4, FcR-UDC I-NK cells or PB-NK cells (each 5×10^6) with or without Rituximab (300 μg) was administered. At day 7, an additional dose of Rituximab (300 μg) was administered. Imaging/monitoring of the NSG mice occur at indicated time points through day 120.
FIGS. 24A-24C illustrate (FIG. 24A) a survival curve and (FIGS. 24B-24C) tumor burden following the efficacy study of FIG. 23. […] In FIGS. 24B-24C, FcR-UDC I-NK cells plus Rituximab and PB-NK plus Rituximab provided a durable response in delaying tumor onset through day 60 in 50% of the mice.
The efficacy of the UDC-NK cells against tumors in vivo was studied in a Raji intraperitoneal (i.p.) tumor model.
In FIG. 23, NSG mice were irradiated and injected i.p. with Raji (Burkitt's lymphoma) cells (3×10^5 cells). Raji cells are resistant to NK cells in the absence of an anti-CD20 antibody. At day four, 5×10^6 FcR-UDC I-NK cells and/or Rituximab (300 μg) was administered to the NSG mice. At day 7, a second dose of Rituximab (300 μg) was administered. […] The NSG mice were imaged and assessed for survival, BLI (tumor burden), and body weight and other health conditions at various days through day 121. […]

For a further assay, the target named is T1, claudin 6 (CLDN6) (UniProt P56747).
T1 sequence (looked up): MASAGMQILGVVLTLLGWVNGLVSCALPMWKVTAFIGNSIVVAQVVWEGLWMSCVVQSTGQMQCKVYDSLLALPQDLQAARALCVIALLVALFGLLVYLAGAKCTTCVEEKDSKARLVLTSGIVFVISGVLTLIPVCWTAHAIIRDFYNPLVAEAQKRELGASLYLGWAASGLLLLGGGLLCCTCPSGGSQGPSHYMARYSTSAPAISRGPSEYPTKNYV
Nature of the assay: cell-based or functional assay.

As for `Br.Br.Cn1nnc(-c2ccc3c(c2)[nH]c2nc(Cc4ccccc4)nc(N[C@H]4CC[C@H](N)CC4)c23)n1.O.O` [UM171, (1r,4r)-N1-(2-benzyl-7-(2-methyl-2H-tetrazol-5-yl)-9H-pyrimidol [4,5-b]indol-4-yl)cyclohexane-1,4-diamine dihydrobromide dihydrate], the “UDC-NK cell yield during NK differentiation” value in assay [1] is “improved UDC-NK cell yield”.
Regarding Rituximab, the mean survival entry in assay [2] is listed as “increased mean survival”.
The molecule ASP1893 mAb (antibody) had an EC50 of ADCC (specific lysis of PA-1 cells by FcR-UDC I-NK cells, four-hour flow-based assay, antibody titrated) in the assay with claudin 6 (CLDN6) of 4.32 ng/mL.

B1: ASP1650 (antibody, from another filing, V domains shown)
VH: EVQLQQSGPELVKPGASMKISCKASGYSFTGYTMNWVKQSHGKNLEWIGLINPYNGGTIYNQKFKGKATLTVDKSSSTAYMELLSLTSEDSAVYYCARDYGFVLDYWGQGTTLTVSS
VL: IVLTQSPAIMSASPGEKVTITCSASSSVSYLHWFQQKPGTSPKLWVYSTSNLPSGVPARFGGSGSGTSYSLTISRMEAEDAATYYCQQRSIYPPWTFGGGTKLEIKR
Take B1: the EC50 of ADCC (specific lysis of PA-1 cells by FcR-UDC I-NK cells, four-hour flow-based assay, antibody titrated) with claudin 6 (CLDN6) stood at 8.49 ng/mL.
